Assay results taken from patent publication US11220504B2, “Pyrrolo[3,2-d] pyrimidine derivatives for the treatment of viral infections and other diseases” (JANSSEN SCIENCES IRELAND UNLIMITED COMPANY, priority 2012, dated 2022).

Assays:
human TLR8 = molecular target: T1, human TLR8 (Homo sapiens, UniProt Q9NR97); assay: TLR8 cellular reporter assay (HEK293, NFκB-luc); assay type: cell-based; details: HEK293 cells transfected with CMV-TLR8 and NFκB-luc, 6 hours incubation; lowest effective concentration
T1 construct: expressed in transfected cells; host or cells: HEK293 cells, transient transfection with TLR8 plasmid and NFκB-luc plasmid
T1 sequence (Q9NR97 27-1041): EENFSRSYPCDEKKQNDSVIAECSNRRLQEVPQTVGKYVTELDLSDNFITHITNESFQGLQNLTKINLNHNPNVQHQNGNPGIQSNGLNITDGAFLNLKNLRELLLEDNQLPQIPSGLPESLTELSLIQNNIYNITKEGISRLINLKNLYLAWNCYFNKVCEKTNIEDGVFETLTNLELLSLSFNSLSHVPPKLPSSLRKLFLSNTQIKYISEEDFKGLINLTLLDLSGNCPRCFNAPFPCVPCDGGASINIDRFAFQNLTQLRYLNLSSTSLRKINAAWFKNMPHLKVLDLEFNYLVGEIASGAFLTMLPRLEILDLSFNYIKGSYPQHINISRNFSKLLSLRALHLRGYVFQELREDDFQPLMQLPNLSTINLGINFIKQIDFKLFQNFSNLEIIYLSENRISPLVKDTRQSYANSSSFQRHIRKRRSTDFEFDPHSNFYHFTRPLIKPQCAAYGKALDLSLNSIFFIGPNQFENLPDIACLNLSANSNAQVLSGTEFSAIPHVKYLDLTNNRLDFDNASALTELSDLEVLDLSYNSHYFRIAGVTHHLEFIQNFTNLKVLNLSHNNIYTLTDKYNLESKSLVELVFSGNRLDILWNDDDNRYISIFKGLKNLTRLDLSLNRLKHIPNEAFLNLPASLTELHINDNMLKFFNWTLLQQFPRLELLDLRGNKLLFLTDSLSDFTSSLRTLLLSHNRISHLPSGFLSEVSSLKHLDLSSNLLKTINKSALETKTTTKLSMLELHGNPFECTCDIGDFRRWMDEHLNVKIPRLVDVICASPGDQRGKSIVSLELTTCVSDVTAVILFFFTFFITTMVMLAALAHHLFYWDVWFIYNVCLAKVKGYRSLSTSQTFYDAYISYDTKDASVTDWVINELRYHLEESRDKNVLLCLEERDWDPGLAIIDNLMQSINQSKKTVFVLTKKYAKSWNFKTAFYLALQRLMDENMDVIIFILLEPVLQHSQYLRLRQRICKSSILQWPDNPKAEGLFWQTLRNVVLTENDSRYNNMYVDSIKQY
Procedure, shortened: (§1)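 HEK293 cells transiently transfected with receptor expression vector plus NFκB-luciferase reporter, exposed to compound (added in 4% DMSO) for 6 hours at 37° C, 5% CO2. Luciferase activity measured by luminescence; dose-response curves from quadruplicate measurements.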

[1] = tested on: interferon-stimulated responsive elements (ISRE); assay: Activation of ISRE promoter elements by conditioned media from PBMC (HEK-ISREluc); assay type: cell-based, human; details: Homo sapiens; conditioned media from PBMC transferred to HEK-ISREluc cells, 24 hours; lowest effective concentration; read-out: PBMC LEC
Procedure, shortened: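 Human PBMCs (≥2 donors, RPMI + 10% human AB serum, 2×10^5 cells/well) incubated overnight with compound; supernatant transferred to HEK293 cells stably carrying pISRE-Luc for 24 h, then luciferase read. LEC = compound concentration on PBMCs giving luciferase signal at least two-fold above assay SD; recombinant IFN-α-2a standard.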

human TLR7 = molecular target: T2, human TLR7 (Homo sapiens, UniProt Q9NYK1); assay: TLR7 cellular reporter assay (HEK293, NFκB-luc); assay type: cell-based; details: HEK293 cells transfected with CMV-TLR7 and NFκB-luc, 6 hours incubation; lowest effective concentration
T2 construct: expressed in transfected cells; host or cells: HEK293 cells, transient transfection with CMV-TLR7 plasmid and NFκB-luc plasmid
T2 sequence (Q9NYK1 27-1049): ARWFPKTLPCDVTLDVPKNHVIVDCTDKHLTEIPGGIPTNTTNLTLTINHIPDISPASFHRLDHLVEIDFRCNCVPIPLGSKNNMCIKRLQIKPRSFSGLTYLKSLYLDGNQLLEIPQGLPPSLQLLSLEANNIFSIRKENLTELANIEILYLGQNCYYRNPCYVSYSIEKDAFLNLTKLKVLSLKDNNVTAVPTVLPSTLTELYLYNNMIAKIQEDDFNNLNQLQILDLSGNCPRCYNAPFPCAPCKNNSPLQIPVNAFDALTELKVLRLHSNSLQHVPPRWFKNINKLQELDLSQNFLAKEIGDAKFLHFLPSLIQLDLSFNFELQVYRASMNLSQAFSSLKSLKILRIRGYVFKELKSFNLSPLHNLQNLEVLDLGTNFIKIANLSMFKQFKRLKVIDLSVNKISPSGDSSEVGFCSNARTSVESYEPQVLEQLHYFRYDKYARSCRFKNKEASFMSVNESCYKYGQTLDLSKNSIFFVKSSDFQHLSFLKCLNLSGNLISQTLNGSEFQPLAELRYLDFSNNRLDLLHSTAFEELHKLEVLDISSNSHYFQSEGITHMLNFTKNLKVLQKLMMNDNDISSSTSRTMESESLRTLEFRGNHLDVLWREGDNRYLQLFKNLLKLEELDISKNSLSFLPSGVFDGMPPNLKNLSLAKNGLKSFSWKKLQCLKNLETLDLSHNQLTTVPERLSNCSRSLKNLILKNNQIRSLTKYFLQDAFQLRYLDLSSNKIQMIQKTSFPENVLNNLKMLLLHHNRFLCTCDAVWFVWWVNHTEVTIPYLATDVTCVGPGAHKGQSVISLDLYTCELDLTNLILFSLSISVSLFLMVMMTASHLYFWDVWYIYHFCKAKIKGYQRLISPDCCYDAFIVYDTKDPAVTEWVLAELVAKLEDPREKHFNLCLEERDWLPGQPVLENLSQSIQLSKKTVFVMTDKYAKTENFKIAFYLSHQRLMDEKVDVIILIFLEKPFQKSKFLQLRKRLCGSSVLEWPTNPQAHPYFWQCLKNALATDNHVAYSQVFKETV
Procedure, shortened: as §1

CCCCNc1nc(N)nc2ccn(Cc3cccc4c3OCC4)c12 [Compound 149]
TLR8 LEC (human TLR8): >25 µM | minimal effective concentration [1]: 0.006 µM | TLR7 LEC (human TLR7): 0.02 µM

COCCNc1nc(N)nc2ccn(Cc3cccc4c3OCC4)c12 [Compound 150]
TLR8 LEC (human TLR8): >25 µM | minimal effective concentration [1]: 0.054 µM | TLR7 LEC (human TLR7): 0.25 µM

Cc1cc(CNc2nc(N)nc3ccn(Cc4cccc(CN5CCCC5)c4)c23)no1 [Compound 153]
TLR8 LEC (human TLR8): >25 µM | minimal effective concentration [1]: 0.002 µM | TLR7 LEC (human TLR7): 0.05 µM

Cc1cc(CNc2nc(N)nc3ccn(Cc4cscn4)c23)no1 [Compound 154]
TLR8 LEC (human TLR8): >25 µM | minimal effective concentration [1]: 0.017 µM | TLR7 LEC (human TLR7): 0.08 µM

Cc1cc(CNc2nc(N)nc3ccn(Cc4cn5ccccc5n4)c23)no1 [Compound 157]
TLR8 LEC (human TLR8): >25 µM | minimal effective concentration [1]: 0.003 µM | TLR7 LEC (human TLR7): 0.03 µM

Cc1cc(CNc2nc(N)nc3ccn(Cc4cccc(Cl)n4)c23)no1 [Compound 159]
TLR8 LEC (human TLR8): >25 µM | minimal effective concentration [1]: 0.019 µM | TLR7 LEC (human TLR7): 0.05 µM

COCCNc1nc(N)nc2ccn(C[C@H]3CCCO3)c12 [Compound 160]
TLR8 LEC (human TLR8): >25 µM | minimal effective concentration [1]: 1.81 µM | TLR7 LEC (human TLR7): 8.07 µM

CCCCNc1nc(N)nc2ccn(Cc3ccccc3OC(F)F)c12 [Compound 161]
TLR8 LEC (human TLR8): >25 µM | minimal effective concentration [1]: 0.009 µM | TLR7 LEC (human TLR7): 0.02 µM

COCCNc1nc(N)nc2ccn(Cc3ccccc3OC(F)F)c12 [Compound 162]
TLR8 LEC (human TLR8): >25 µM | minimal effective concentration [1]: 0.128 µM | TLR7 LEC (human TLR7): 0.32 µM

CCCCNc1nc(N)nc2ccn(Cc3cccc4c3OCCO4)c12 [Compound 163]
TLR8 LEC (human TLR8): 0.75 µM | minimal effective concentration [1]: 0.001 µM | TLR7 LEC (human TLR7): <0.01 µM

COCCNc1nc(N)nc2ccn(Cc3cccc4c3OCCO4)c12 [Compound 164]
TLR8 LEC (human TLR8): 15.93 µM | minimal effective concentration [1]: 0.025 µM | TLR7 LEC (human TLR7): 0.04 µM

COc1ccnc(Cn2ccc3nc(N)nc(NCc4cc(C)on4)c32)c1 [Compound 167]
TLR8 LEC (human TLR8): >25 µM | minimal effective concentration [1]: 0.008 µM | TLR7 LEC (human TLR7): 0.09 µM

COc1ccnc(Cn2ccc3nc(N)nc(NCc4cc(C)on4)c32)c1OC [Compound 168]
TLR8 LEC (human TLR8): >25 µM | minimal effective concentration [1]: 0.011 µM | TLR7 LEC (human TLR7): 0.09 µM

COc1c(C)cnc(Cn2ccc3nc(N)nc(NCc4cc(C)on4)c32)c1C [Compound 169]
TLR8 LEC (human TLR8): >25 µM | minimal effective concentration [1]: 0.011 µM | TLR7 LEC (human TLR7): 0.04 µM

Cc1cc(CNc2nc(N)nc3ccn(Cc4cccc(C(N)=O)n4)c23)no1 [Compound 172]
TLR8 LEC (human TLR8): >25 µM | minimal effective concentration [1]: 0.017 µM | TLR7 LEC (human TLR7): 1.40 µM

Cc1nc(CNc2nc(N)nc3ccn(Cc4ccccn4)c23)no1 [Compound 173]
TLR8 LEC (human TLR8): >25 µM | minimal effective concentration [1]: 0.066 µM | TLR7 LEC (human TLR7): 0.53 µM

Cc1ccc(Cn2ccc3nc(N)nc(NCc4cc(C)on4)c32)nc1 [Compound 175]
TLR8 LEC (human TLR8): >25 µM | minimal effective concentration [1]: 0.009 µM | TLR7 LEC (human TLR7): 0.02 µM
